Measured values reported in PubChem BioAssay AID1919008 (Molecular Pharmacology Branch, DTP, NCI, 2023).

System: DMS-114 complex spheroids with HUVEC/MSC, growth % test/control
Assay: Anticancer human tumor DMS-114 cell line growth inhibition [AhR];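 further: spheroids exposed to agents for 7 days before readout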;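 on viability, T/C: 100% = DMSO vehicle control wells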
Conditions: for IC50: curve of first compound; for viability, T/C: stronger effect = lower value
Procedure, shortened: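 Agents were dosed in half-log steps down from roughly clinical Cmax, or from 10 microM where Cmax was unknown, alone and with AhR antagonists. Read-out: percent test/control growth of tumor spheroids containing HUVEC and MSC stromal cells.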

[1] = second compound 0.1 µM, first compound 0.0316 µM
[2] = second compound 0.1 µM, first compound 0.1 µM
[3] = second compound 0.1 µM, first compound 0.316 µM
[4] = second compound 0.1 µM, first compound 1 µM
[5] = second compound 0.1 µM, first compound 3.16 µM
[6] = second compound 0.1 µM, first compound 10 µM
[7] = second compound 0.316 µM, first compound 0.0316 µM
[8] = second compound 0.316 µM, first compound 0.1 µM
[9] = second compound 0.316 µM, first compound 0.316 µM
[10] = second compound 0.316 µM, first compound 1 µM
[11] = second compound 0.316 µM, first compound 3.16 µM
[12] = second compound 0.316 µM, first compound 10 µM
[13] = second compound 1 µM, first compound 0.0316 µM
[14] = second compound 1 µM, first compound 0.1 µM
[15] = second compound 1 µM, first compound 0.316 µM
[16] = second compound 1 µM, first compound 1 µM
[17] = second compound 1 µM, first compound 3.16 µM
[18] = second compound 1 µM, first compound 10 µM
[19] = second compound 3.16 µM, first compound 0.0316 µM
[20] = second compound 3.16 µM, first compound 0.1 µM
[21] = second compound 3.16 µM, first compound 0.316 µM
[22] = second compound 3.16 µM, first compound 1 µM
[23] = second compound 3.16 µM, first compound 3.16 µM
[24] = second compound 3.16 µM, first compound 10 µM
[25] = second compound 10 µM, first compound 0.0316 µM
[26] = second compound 10 µM, first compound 0.1 µM
[27] = second compound 10 µM, first compound 0.316 µM
[28] = second compound 10 µM, first compound 1 µM
[29] = second compound 10 µM, first compound 3.16 µM
[30] = second compound 10 µM, first compound 10 µM

| SMILES | IC50 (second compound 0.1 µM) [µM] | IC50 (second compound 0.316 µM) [µM] | IC50 (second compound 1 µM) [µM] | IC50 (second compound 3.16 µM) [µM] | IC50 (second compound 10 µM) [µM] | viability, T/C [1] [%] | viability, T/C [2] [%] | viability, T/C [3] [%] | viability, T/C [4] [%] | viability, T/C [5] [%] | viability, T/C [6] [%] | viability, T/C [7] [%] | viability, T/C [8] [%] | viability, T/C [9] [%] | viability, T/C [10] [%] | viability, T/C [11] [%] | viability, T/C [12] [%] | viability, T/C [13] [%] | viability, T/C [14] [%] | viability, T/C [15] [%] | further results |
| --- | --- | --- | --- | --- | --- | --- | --- | --- | --- | --- | --- | --- | --- | --- | --- | --- | --- | --- | --- | --- | --- |
| O=C(C=Cc1cccc(S(=O)(=O)Nc2ccccc2)c1)NO + CC(CO)NC(=O)c1cc(-c2ccc(Cl)cc2)nn(-c2cnn(C)c2)c1=O | 0.406 | 0.381 | 0.459 | 0.543 | 0.482 | 75.9 | 77.6 | 55.1 | 27.2 | 13.3 | 11.9 | 77.6 | 78.3 | 53.2 | 26.2 | 11.3 | 12.4 | 84.6 | 81.2 | 61.1 | viability, T/C [16]: 26.9%; viability, T/C [17]: 11.1%; viability, T/C [18]: 13.5%; viability, T/C [19]: 82%; viability, T/C [20]: 76.9%; viability, T/C [21]: 68.1%; viability, T/C [22]: 29.9%; viability, T/C [23]: 12.4%; viability, T/C [24]: 12.3%; viability, T/C [25]: 90.6%; viability, T/C [26]: 68.2%; viability, T/C [27]: 64.6%; viability, T/C [28]: 35%; viability, T/C [29]: 13.8%; viability, T/C [30]: 14.5% |
| CC1(C)CCC(CN2CCN(c3ccc(C(=O)NS(=O)(=O)c4ccc(NCC5CCOCC5)c([N+](=O)[O-])c4)c(Oc4cnc5[nH]ccc5c4)c3)CC2)=C(c2ccc(Cl)cc2)C1 + Cc1ccccc1N=Nc1ccc(NC(=O)c2ccnn2C)c(C)c1 | > 10 | > 10 | > 10 | > 10 | > 10 | 103 | 100 | 112 | 114 | 120 | 107 | 120 | 112 | 105 | 104 | 117 | 118 | 105 | 107 | 113 | viability, T/C [16]: 111%; viability, T/C [17]: 117%; viability, T/C [18]: 102%; viability, T/C [19]: 99.8%; viability, T/C [20]: 104%; viability, T/C [21]: 103%; viability, T/C [22]: 110%; viability, T/C [23]: 114%; viability, T/C [24]: 105%; viability, T/C [25]: 104%; viability, T/C [26]: 102%; viability, T/C [27]: 101%; viability, T/C [28]: 104%; viability, T/C [29]: 101%; viability, T/C [30]: 87.1% |
| COc1ccc([C@@H](O)c2cc(-c3ncnc4cc(N5CCOCC5)ccc34)c(F)cc2Cl)nn1 + Cc1ccccc1N=Nc1ccc(NC(=O)c2ccnn2C)c(C)c1 | > 10 | > 10 | > 10 | > 10 | > 10 | 92.6 | 106 | 114 | 121 | 124 | 96.6 | 98.1 | 95.7 | 104 | 104 | 111 | 99.8 | 96.6 | 92 | 94.6 | viability, T/C [16]: 114%; viability, T/C [17]: 129%; viability, T/C [18]: 97%; viability, T/C [19]: 96.7%; viability, T/C [20]: 100%; viability, T/C [21]: 91.8%; viability, T/C [22]: 103%; viability, T/C [23]: 112%; viability, T/C [24]: 84.4%; viability, T/C [25]: 94.6%; viability, T/C [26]: 94.2%; viability, T/C [27]: 90.8%; viability, T/C [28]: 91%; viability, T/C [29]: 91.4%; viability, T/C [30]: 53.6% |
